Data: patent US8628938B2, “Polynucleotide encoding UDP-glucuronyl transferase” (Suntory Holdings Limited, priority 2007, dated 2014)

Experiments:
S1UGT = assay: UDP-glucuronosyltransferase activity assay (HPLC) with recombinant S1UGT; type: biochemical, Scutellaria laeteviolacea v. yakusimensis; settings: for glucuronosyl transfer activity to glycosyl acceptor substrate (in words): standard reaction conditions; for relative activity to each substrate, taking the activity to scutellarein as 100%: 100 μM glycosyl acceptor substrate, 2 mM UDP-glucuronic acid, pH 7.5, 30° C., 30 minutes
Procedure: (§1) Escherichia coli BL21 (DE3) was transformed with each plasmid obtained in 4-(1) above. The transformant obtained was shake cultured overnight at 37° C. in 4 ml of LB medium (10 g/l tryptone, 5 g/l yeast extract, 1 g/l NaCl) supplemented with 50 μg/ml of ampicillin. The culture broth, 4 ml, which reached the stationary phase, was inoculated into 80 ml of the medium with the same composition, followed by shake culture at 37° C. When the cell turbidity (OD600) reached approximately 0.5, 0.4 mM IPTG (isopropyl-β-thiogalactopyranoside) in a final concentration was added to the medium, followed by shake culture at 22° C. for 20 hours. All of the subsequent procedures were performed at 4° C. The transformants cultured were centrifuged (7,000×g, 15 mins.) to collect the cells, and 2 ml/g cell of Buffer S (20 mM sodium phosphate buffer (pH 7.4), 20 mM imidazole, 0.5 M NaCl, 14 mM β-mercaptoethanol) was added to the cells for suspension. Subsequently, ultrasonication was performed (15 secs.×8) followed by centrifugation (15,000×g, 10 mins.). To the supernatant obtained, 0.12% (w/v) polyethyleneimine in a final concentration was added to […], which was then allowed to stand for 30 minutes. The mixture was centrifuged (15,000×g, 10 mins.) and the supernatant was recovered as a crude enzyme solution. The crude enzyme solution was applied to His SpinTrap (GE Healthcare), which had been equilibrated with Buffer S, and centrifuged (70×g, 30 secs.). After washing with 600 μl of Buffer S, the protein bound to the column was stepwise eluted with 600 μl each of Buffer S containing 100, 200 and 500 mM imidazole. The buffer in each fraction eluted was replaced by 20 mM potassium phosphate buffer (pH 7.5) containing 14 mM β-mercaptoethanol, using Microcon YM-30 (Amicon). […] These fractions were mixed and used for analysis.
(§2) Standard reaction conditions are as follows. A reaction solution (2 mM UDP-glucuronic acid, 100 μM glycosyl acceptor substrate, 50 mM potassium phosphate buffer (pH 7.5), enzyme solution), 50 μl, was prepared and the enzyme solution was added to initiate the reaction at 30° C. for 30 minutes. The reaction was stopped by adding 50 μl of 0.5% TFA in CH3CN and provided for HPLC analysis. The conditions for HPLC are as follows: column, Develosil C30-UG-5 (4.6×150 mm); eluant A, 0.1% TFA/H2O; eluant B, 0.08% TFA/90% CH3CN; conditions A for elution (except for aurone, catechin, coumarine and phenylpropanoid), 0 min/5% B→18 min/100% eluant B'18.1 min/5% B→25 min/5% B; conditions B for elution (aurone, catechin, coumarine and phenylpropanoid), 0 min/5% B→20 min/50% eluant B→20.5 min/5% B→25 min/5% B; flow rate, 1 ml/min; detection wavelength: 280 and 350 nm.

PfUGT50 = assay: UDP-glucuronosyltransferase activity assay (HPLC) with recombinant PfUGT50; type: biochemical, Perilla frutescens; settings: for glucuronosyl transfer activity to glycosyl acceptor substrate (in words): standard reaction conditions; for relative activity to each substrate, taking the activity to scutellarein as 100%: 100 μM glycosyl acceptor substrate, 2 mM UDP-glucuronic acid, pH 7.5, 30° C., 30 minutes
Procedure: as §1, §2

AmUGTcg10 = assay: UDP-glucuronosyltransferase activity assay (HPLC) with recombinant AmUGTcg10; type: biochemical, Antirrhinum majus; settings: for relative activity to each substrate, taking the activity to scutellarein as 100%: 100 μM glycosyl acceptor substrate, 2 mM UDP-glucuronic acid, pH 7.5, 30° C., 30 minutes; for glucuronosyl transfer activity to glycosyl acceptor substrate (in words): standard reaction conditions
Procedure: as §1, §2

SiUGT23 = assay: UDP-glucuronosyltransferase activity assay (HPLC) with recombinant SiUGT23; type: biochemical, Sesamum indicum; settings: for relative activity to each substrate, taking the activity to scutellarein as 100%: 100 μM glycosyl acceptor substrate, 2 mM UDP-glucuronic acid, pH 7.5, 30° C., 30 minutes; for glucuronosyl transfer activity to glycosyl acceptor substrate (in words): standard reaction conditions
Procedure: as §2
cDNA containing full-length ORF of SiUGT23 derived from Sesamum indicum was amplified by a gene-specific primer set (SEQ ID NOs: 24 and 25). cDNA synthesized using total RNA extracted from sesame seeds was used as a template. SiUGT23 was incorporated into Escherichia coli expression vector as in UGT of Perilla frutescens, Scutellaria laeteviolacea v. yakusimensis and Antirrhinum majus in EXAMPLE 1 and recombinant SiUGT23 protein was expressed in the same way to assay the enzyme activity.

[1] = apigenin as glycosyl acceptor substrate

Compound | glucuronosyl transfer activity to glycosyl acceptor substrate (in words) (S1UGT) | glucuronosyl transfer activity to glycosyl acceptor substrate (in words) (PfUGT50) | relative activity to each substrate, taking the activity to scutellarein as 100% (SiUGT23) [%] | relative activity to each substrate, taking the activity to scutellarein as 100% (PfUGT50) [%] | glucuronosyl transfer activity to glycosyl acceptor substrate (in words) (SiUGT23) | relative activity to each substrate, taking the activity to scutellarein as 100% (S1UGT) [%] | glucuronosyl transfer activity to glycosyl acceptor substrate (in words) (AmUGTcg10) | other results
Oc1ccc(C2OCC3C(c4ccc(O)c(O)c4)OCC23)cc1O (single isomer, unassigned; (+)) [EC2, (+)-episesamin catechol 2] | shows the activity | – | – | – | – | – | – | –
Oc1ccc([C@H]2OC[C@H]3[C@@H]2CO[C@@H]3c2ccc3c(c2)OCO3)cc1O [SC1, (+)-sesamin catechol 1] | shows the activity | shows the activity | – | – | – | – | – | –
Oc1ccc([C@H]2OC[C@H]3[C@@H]2CO[C@@H]3c2ccc(O)c(O)c2)cc1O [SC2, (+)-sesamin catechol 2] | shows the activity | – | – | – | – | – | – | –
O=C(O)[C@H]1O[C@H](OP(=O)(O)OP(=O)(O)OC[C@H]2O[C@@H](n3ccc(=O)[nH]c3=O)[C@H](O)[C@@H]2O)[C@H](O)[C@@H](O)[C@@H]1O [UDP-glucuronic acid] | – | – | – | – | – | – | – | activity to UDP-activated glycosyl donor (S1UGT; [1]): showed the activity; activity to UDP-activated glycosyl donor (PfUGT50; [1]): showed the activity; activity to UDP-activated glycosyl donor (AmUGTcg10; [1]): showed the activity
O=C1/C(=C/c2ccc(O)c(O)c2)Oc2cc(O)cc(O)c21 [aureusidin] | no activity | – | 13 | 40 | – | – | – | relative activity to each substrate, taking the activity to scutellarein as 100% (AmUGTcg10): 2%
O=C(O)/C=C/c1ccc(O)c(O)c1 [caffeic acid] | – | – | – | – | no activity | – | – | –
COc1cc(-c2cc(=O)c3c(O)cc(O)cc3o2)ccc1O [chrysoeriol] | – | – | 6 | 18 | – | 0.02 | – | relative activity to each substrate, taking the activity to scutellarein as 100% (AmUGTcg10): 18%
COc1cc(/C=C/CO)ccc1O [coniferyl alcohol] | no activity | no activity | – | – | – | – | no activity | –
O=c1c(-c2ccc(O)cc2)coc2cc(O)ccc12 [daidzein] | – | no activity | – | – | no activity | 0.3 | no activity | –
COc1ccc(-c2cc(=O)c3c(O)cc(O)cc3o2)cc1O [diosmetin] | – | – | 4 | 62 | – | 0.3 | – | relative activity to each substrate, taking the activity to scutellarein as 100% (AmUGTcg10): 26%
O=C(O[C@@H]1Cc2c(O)cc(O)cc2O[C@@H]1c1cc(O)c(O)c(O)c1)c1cc(O)c(O)c(O)c1 [epigallocatechin gallate] | no activity | no activity | – | – | no activity | – | no activity | –
O=c1ccc2cc(O)c(O)cc2o1 [esculetin] | – | no activity | 0.03 | – | – | 0.3 | no activity | –
O=c1c(-c2ccc(O)cc2)coc2cc(O)cc(O)c12 [genistein] | – | no activity | – | – | no activity | 1 | no activity | –
O=c1cc(-c2ccc(O)cc2)oc2cc(O)c([C@@H]3O[C@H](CO)[C@@H](O)[C@H](O)[C@H]3O)c(O)c12 [isovitexin] | no activity | no activity | 0.3 | – | – | – | no activity | –
O=c1c(O)c(-c2ccc(O)cc2)oc2cc(O)cc(O)c12 [kaempferol] | – | – | 18 | 3 | – | 14 | – | relative activity to each substrate, taking the activity to scutellarein as 100% (AmUGTcg10): 28%
O=c1c(O)c(-c2cc(O)c(O)c(O)c2)oc2cc(O)cc(O)c12 [myricetin] | shows the activity | – | – | 9 | – | – | – | –
O=C1C[C@@H](c2ccc(O)cc2)Oc2cc(O)cc(O)c21 [naringenin] | – | – | 2 | 3 | – | 6 | – | relative activity to each substrate, taking the activity to scutellarein as 100% (AmUGTcg10): 15%
O=c1cc(-c2ccc(O)c(O)c2)oc2c([C@@H]3O[C@H](CO)[C@@H](O)[C@H](O)[C@H]3O)c(O)cc(O)c12 [orientin] | no activity | no activity | – | – | no activity | – | no activity | –
Oc1ccc(C=Cc2cc(O)cc(O)c2)cc1 [resveratrol] | shows the activity | shows the activity | – | – | shows the activity | – | shows the activity | –
O=c1cc(-c2cc(O)c(O)c(O)c2)oc2cc(O)cc(O)c12 [tricetin] | – | – | 14.0 | 87.9 | – | 1.1 | – | relative activity to each substrate, taking the activity to scutellarein as 100% (AmUGTcg10): 23.8%
catechin | no activity | no activity | – | – | no activity | – | no activity | –
